Assay results as given in ChEMBL document CHEMBL5113540, “Fragment-Based Discovery of a Novel, Brain Penetrant, Orally Active HDAC2 Inhibitor” (ACS Med Chem Lett, 2022).
Active and inactive are the calls of the source. No cut-off for these calls is given here.

Assays:
[1] = target: T1, Histone deacetylase 2 (Homo sapiens, UniProt Q92769); test: Inhibition of full length recombinant C-terminal FLAG-tagged human HDAC2 expressed in baculovirus-infected Sf9 cells measured for 2 hrs by fluorescence-based assay
T1 sequence (Q92769 whole entry): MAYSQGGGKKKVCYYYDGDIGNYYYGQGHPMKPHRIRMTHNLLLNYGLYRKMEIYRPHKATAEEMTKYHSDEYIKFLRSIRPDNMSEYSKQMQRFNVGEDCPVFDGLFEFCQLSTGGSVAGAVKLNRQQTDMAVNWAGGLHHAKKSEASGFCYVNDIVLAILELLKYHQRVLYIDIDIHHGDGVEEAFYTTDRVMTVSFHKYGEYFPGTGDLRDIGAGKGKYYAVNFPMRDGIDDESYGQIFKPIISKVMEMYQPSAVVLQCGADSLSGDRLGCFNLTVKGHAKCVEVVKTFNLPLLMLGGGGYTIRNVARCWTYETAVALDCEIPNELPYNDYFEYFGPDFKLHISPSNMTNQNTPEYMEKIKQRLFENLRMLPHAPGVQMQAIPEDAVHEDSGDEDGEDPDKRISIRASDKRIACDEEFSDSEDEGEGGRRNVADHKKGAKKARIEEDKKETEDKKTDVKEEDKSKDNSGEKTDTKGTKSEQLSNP

[2] = target: T1, Histone deacetylase 2; test: Inhibition of full length recombinant C-terminal FLAG-tagged human HDAC2 expressed in baculovirus-infected Sf9 cells at 1 mM measured for 2 hrs by fluorescence-based assay relative to control
[3] = AUC (0 to infinity) in C57BL/6 mouse brain at 30 mg/kg, po measured upto 24 hrs by LC-ESI-MS/MS analysis; type: ADME, organism-based; parameters: dose 30 mg/kg, time < 24 hrs, route po; settings: in vivo
[4] = Half life in C57BL/6 mouse plasma at 100 mg/kg, po measured upto 24 hrs by LC-ESI-MS/MS analysis; type: ADME, organism-based
[5] = Cmax in C57BL/6 mouse brain at 100 mg/kg, po measured upto 6 hrs by LC-ESI-MS/MS analysis; type: ADME, organism-based; parameters: dose 100 mg/kg, time < 6 hrs, route po
[6] = tested on: Mus musculus; test: In vivo inhibition of HDAC2 in C57BL/6 mouse assessed as increase in histone H4K12 acetylation in brain at 100 mg/kg, po measured after 4 hrs by immunochemical detection method; type: functional, organism-based
[7] = Half life in C57BL/6 mouse brain at 100 mg/kg, po measured upto 6 hrs by LC-ESI-MS/MS analysis; type: ADME, organism-based
[8] = tested on: SK-N-SH; test: Inhibition of […] in human SK-N-SH cells assessed as increase in histone H4K12 acetylation level at 3 to 12 uM measured after 48 hrs by immunochemical detection based analysis; type: cell-based; settings: dose 3-12 µM
[9] = AUC (0 to infinity) in C57BL/6 mouse brain at 100 mg/kg, po measured upto 6 hrs by LC-ESI-MS/MS analysis; type: ADME, organism-based; parameters: dose 100 mg/kg, time < 6 hrs, route po; settings: in vivo
[10] = Cmax in C57BL/6 mouse plasma at 100 mg/kg, po measured upto 24 hrs by LC-ESI-MS/MS analysis; type: ADME, organism-based; parameters: time < 24 hrs, dose 100 mg/kg, route po
[11] = AUC (0 to infinity) in C57BL/6 mouse plasma at 30 mg/kg, po measured upto 24 hrs by LC-ESI-MS/MS analysis; type: ADME, organism-based; parameters: time < 24 hrs, dose 30 mg/kg, route po
[12] = Unbound brain-to-plasma concentration ratio in C57BL/6 mouse by LC-MS/MS analysis; type: ADME; settings: read-out: K(p,uu,brain)
[13] = Cmax in C57BL/6 mouse brain at 30 mg/kg, po measured upto 24 hrs by LC-ESI-MS/MS analysis; type: ADME, organism-based; parameters: dose 30 mg/kg, time < 24 hrs, route po
[14] = Half life in C57BL/6 mouse plasma at 30 mg/kg, po measured upto 24 hrs by LC-ESI-MS/MS analysis; type: ADME, organism-based
[15] = Lipophilicity, log D of the compound at pH 7.4; type: physicochemical; settings: buffer
[16] = Half life in C57BL/6 mouse brain at 30 mg/kg, po measured upto 24 hrs by LC-ESI-MS/MS analysis; type: ADME, organism-based
[17] = AUC (0 to infinity) in C57BL/6 mouse plasma at 100 mg/kg, po measured upto 24 hrs by LC-ESI-MS/MS analysis; type: ADME, organism-based; parameters: time < 24 hrs, dose 100 mg/kg, route po
[18] = Cmax in C57BL/6 mouse plasma at 30 mg/kg, po measured upto 24 hrs by LC-ESI-MS/MS analysis; type: ADME, organism-based; parameters: time < 24 hrs, dose 30 mg/kg, route po
[19] = tested on: SK-N-SH; test: Inhibition of […] in human SK-N-SH cells assessed as increase in histone H3K9 acetylation level at 3 to 12 uM measured after 48 hrs by immunochemical detection based analysis; type: cell-based; settings: dose 3-12 µM
[20] = target: T1, Histone deacetylase 2; test: Inhibition of full length recombinant C-terminal FLAG-tagged human HDAC2 expressed in baculovirus-infected Sf9 cells at 2 mM measured for 2 hrs by fluorescence-based assay relative to control

## O=C([C@H]1C[C@@H](c2ccc(Cl)cc2)CN1)N1Cc2ccccc2C1
[1]
  IC50: 4 µM

## O=C([C@H]1C[C@@H](c2ccccc2)CN1)N1CCN(c2nccc3ccsc23)CC1
[1]
  IC50: 1.7 µM

## O=C([C@H]1C[C@@H](c2cccc(Cl)c2)CN1)N1Cc2ccccc2C1
[1]
  IC50: 2.8 µM

## O=C1CCC(c2ccc(Cl)cc2)N1 (centres undefined)
[2]
  inhibition: 9%

## O=C1CCC(c2ccc([C@H]3CN[C@@H](C(=O)N4Cc5ccccc5C4)C3)cc2)N1 (stereo in doubt; 11)
[1]
  IC50: 18 µM

## O=C1CCC(c2ccc([C@H]3CN[C@@H](C(=O)N4Cc5ccccc5C4)C3)cc2)N1 (stereo in doubt; 10)
[1]
  IC50: 26 µM

## O=C([C@H]1C[C@@H](c2cccc(Cl)c2)CN1)N1CCN(c2nccc3ccsc23)CC1
[3]
  AUC: 4 µg·h/g
[1]
  IC50: 0.5 µM
[4]
  half-life: 3.5 h
[5]
  Cmax: 3400 ng/g
[6]
  inhibition: Active
[7]
  half-life: 2.7 h
[8]
  inhibition: Active
[9]
  AUC: 13.1 µg·h/g
[10]
  Cmax: 4000 ng/mL
[11]
  AUC(0-inf): 4200 ng·h/mL
[12]
  Kp uu: 0.36
[13]
  Cmax: 2300 ng/g
[14]
  half-life: 1.1 h
[15]
  logD: 3.9
[16]
  half-life: 0.9 h
[17]
  AUC(0-inf): 18500 ng·h/mL
[18]
  Cmax: 2400 ng/mL
[19]
  inhibition: Active

## CN(C)C(=O)C(N)Cc1ccc(F)cc1 (centres undefined)
[1]
  IC50: 1000 µM
[2]
  inhibition: 58%

## O=C([C@H]1C[C@@H](c2ccccc2)CN1)N1CCCC1
[1]
  IC50: 26 µM

## O=C([C@H]1C[C@@H](c2ccccc2)CN1)N1Cc2ccccc2C1
[1]
  IC50: 6.4 µM

## N[C@H](CCc1ccccc1)C(=O)N1CCCC1
[1]
  IC50: 110 µM

## CN(C)C(=O)[C@H](N)CCc1ccccc1
[20]
  inhibition: 64%

## N#Cc1cccnc1N1CCN(C(=O)[C@H]2C[C@@H](c3ccccc3)CN2)CC1
[1]
  IC50: 1.8 µM

## N#Cc1cccnc1N1CCN(C(=O)[C@H]2C[C@@H](c3cccc(Cl)c3)CN2)CC1
[1]
  IC50: 0.85 µM

## Cc1cc(O)cc(=O)o1
[2]
  inhibition: 4%

## O=C(O)Cc1ccccc1
[2]
  inhibition: 40%
